System: HCT 116 cells
Assay: Viability assay in HCT 116 cells (CellTiter-Glo)
Type: cell-based
Settings: 120 h; HCT 116 human colon carcinoma cells, 5 days incubation
Experimental: Viability Assay in HCT 116 Cells
A viability assay was performed using the CellTiter-Glo® Luminescent Cell Viability Assay (see Promega Corporation's Technical Bulletin No. 288, pp. 1-11 [revised February, 2004] which is hereby incorporated by reference in its entirety). This assay is a homogeneous method of determining the number of viable cells in culture based on quantitation of the ATP present, an indicator of metabolically active cells. The assay is designed for use with multiwell formats, making it ideal for automated high-throughput screening (HTS), cell proliferation and cytotoxicity assays. The homogeneous assay procedure involves adding a single reagent (containing luciferase, luciferan substrate, and buffer) directly to cells cultured in serum-supplemented medium. Cell washing, removal of medium and multiple pipetting steps are not required. The system detects as few as 15 cells/well in a 384-well format in 10 minutes after adding reagent and mixing.
The homogeneous “add-mix-measure” format results in cell lysis and generation of a luminescent signal proportional to the amount of ATP present. The amount of ATP is directly proportional to the number of cells present in culture. The above-referenced assay generates a “glow-type” luminescent signal, produced by the luciferase reaction, which has a half-life generally greater than five hours, depending on cell type and medium used. The extended half-life eliminates the need to use reagent injectors and provides flexibility for continuous or batch mode processing of multiple plates. The unique homogeneous format avoids errors that may be introduced by other ATP measurement methods that require multiple steps.
HCT 116 cells (human colon carcinoma, ATCC-No. CCl-247) were cultivated in RPMI 1640 medium with GlutaMAX™ I (cell culture media that contains L-Alanyl-L-Glutamine [a stabilized form/source of L-Glutamine] from Invitrogen, Cat-No. 61870-010), 5% Fetal Calf Serum (FCS, Sigma Cat-No. F4135 (FBS)); 100 Units/ml penicillin/100 μg/ml streptomycin (=Pen/Strep from Invitrogen Cat. No. 15140). For the assay the cells were seeded in 384 well plates, 1000 cells per well, in the same medium. The next day the test compounds were added in various concentrations ranging from 30 μM to 0.0015 μM (10 concentrations, 1:3 diluted). After 5 days the viability assay was performed according to the instructions of the manufacturer. In brief: the cell-plate was equilibrated to room temperature for approximately 30 minutes and then the CellTiter-Glo™ reagent (which contains luciferase, luciferan substrate, and buffer) was added. The contents were carefully mixed for 15 minutes to induce cell lysis. After 45 minutes the luminescent signal was measured in Victor 2, (scanning multiwell spectrophotometer, Wallac).
1st. Day: • Medium: RPMI 1640 with GlutaMAX™ I (Invitrogen, Cat-No. 61870), 5% FCS (Sigma Cat.-No. F4135), Pen/Strep (Invitrogen, Cat No. 15140). • HCT116 (ATCC-No. CCl-247): 1000 cells in 60 μl per well of 384 well plate (Greiner 781098, μClear-plate white) • After seeding incubate plates 24 h at 37° C., 5% CO2 2nd. Day: Induction (Treatment with Compounds, 10 Concentrations):
In order to achieve a final concentration of 30 μM as highest concentration 3.5 μl of 10 mM compound stock solution were added directly to 163 μl media. Then step e) of the dilution procedure described below, was followed.
In order to achieve the second highest to the lowest concentrations, a serial dilution with dilution steps of 1:3 was followed according to the procedure (a-e) as described here below: a) for the second highest concentration add 10 μl of 10 mM stock solution of compound to 20 μl dimethylsulfoxide (DMSO) b) dilute 8×1:3 (always 10 μl to 20 μl DMSO) in this DMSO dilution row (results in 9 wells with concentrations from 3333.3 μM to 0.51 μM) c) dilute each concentration 1:47.6 (3.5 μl compound dilution to 163 μl media) […]

| Structure (SMILES) | IC50 [nM] |
| --- | --- |
| Cc1cc(Nc2cc3ccccc3c(Oc3ccccc3)n2)n[nH]1 [Example 11, (5-Methyl-1H-pyrazol-3-yl)-(1-phenoxy-isoquinolin-3-yl)-amine] | 1830 |
| Cc1cc(Nc2cc3ccccc3c(OCc3ccccc3)n2)n[nH]1 [Example 12, (1-Benzyloxy-isoquinolin-3-yl)-(5-methyl-1H-pyrazol-3-yl)-amine] | 3320 |
| Cc1cc(Nc2cc3ccccc3c(Oc3ccc(Cl)cc3)n2)n[nH]1 [Example 16, [1-(4-Chloro-phenoxy)-isoquinolin-3-yl]-(5-methyl-1H-pyrazol-3-yl)-amine] | 1930 |
| Cc1cc(Nc2cc3ccccc3c(Oc3ccccc3C)n2)n[nH]1 [Example 21, (5-Methyl-1H-pyrazol-3-yl)-(1-o-tolyloxy-isoquinolin-3-yl)-amine] | 5670 |
| Cc1cc(Nc2cc3ccccc3c(OC3CCCCC3)n2)n[nH]1 [Example 33, (1-Cyclohexyloxy-isoquinolin-3-yl)-(5-methyl-1H-pyrazol-3-yl)-amine] | 3240 |
| COc1ccc2c(OCCN3CCOCC3)nc(Nc3cc(C)[nH]n3)cc2c1 [Example 53, (5-Methyl-1H-pyrazol-3-yl)-[1-(2-morpholin-4-yl-ethoxy)-6-methoxy-isoquinolin-3-yl]-amine] | 3500 |
| COc1ccc2cc(Nc3cc(C)[nH]n3)nc(Oc3ccc(Cl)cc3)c2c1 [Example 77, [1-(4-Chloro-phenoxy)-7-methoxy-isoquinolin-3-yl]-(5-methyl-1H-pyrazol-3-yl)-amine] | 1940 |
| COc1ccc2c(Oc3ccc(F)cc3)nc(Nc3cc(C)[nH]n3)cc2c1OC [Example 94, [1-(4-Fluoro-phenoxy)-5,6-dimethoxy-isoquinolin-3-yl]-(5-methyl-1H-pyrazol-3-yl)-amine] | 2540 |
| COc1cc2cc(Nc3cc(C)[nH]n3)nc(OC3CCC3)c2cc1OC [Example 125, (1-Cyclobutoxy-6,7-dimethoxy-isoquinolin-3-yl)-(5-methyl-1H-pyrazol-3-yl)-amine] | 510 |
| Cc1cc(Nc2cc3ccccc3c(-c3ccccc3)n2)n[nH]1 [Example 131, (5-Methyl-1H-pyrazol-3-yl)-(1-phenyl-isoquinolin-3-yl)-amine] | 3930 |
| Cc1cc(Nc2cc3ccccc3c(-c3ccc(Cl)cc3)n2)n[nH]1 [Example 140, [1-(4-Chloro-phenyl)-isoquinolin-3-yl]-(5-methyl-1H-pyrazol-3-yl)-amine] | 2610 |
| Cc1cc(Nc2cc3ccccc3c(-c3csc4ccccc34)n2)n[nH]1 [Example 159, (1-Benzo[b]thiophen-3-yl-isoquinolin-3-yl)-(5-methyl-1H-pyrazol-3-yl)-amine] | 1900 |
| Cc1cc(Nc2cc3ccccc3c(-c3cnn(C)c3)n2)n[nH]1 [Example 164, (5-Methyl-1H-pyrazol-3-yl)-[1-(1-methyl-1H-pyrazol-4-yl)-isoquinolin-3-yl]-amine] | 5310 |
| COc1ccc2c(-c3cn[nH]c3)nc(Nc3cc(C)[nH]n3)cc2c1 [Example 194, (5-Methyl-1H-pyrazol-3-yl)-[1-(1H-pyrazol-4-yl)-6-methoxy-isoquinolin-3-yl]-amine] | 3440 |
| FC(F)(F)c1ccc(-c2nc(Nc3cc[nH]n3)cc3ccccc23)cc1 [Example 220, (1H-Pyrazol-3-yl)-[1-(4-trifluoromethyl-phenyl)-isoquinolin-3-yl]-amine] | 3170 |
| COc1ccc2c(-c3ccc(C(C)=O)cc3)nc(Nc3cc[nH]n3)cc2c1 [Example 252, 1-{4-[6-Methoxy-3-(1H-pyrazol-3-ylamino)-isoquinolin-1-yl]-phenyl}-ethanone] | 3870 |
| COCCCNC(=O)c1ccc2c(-c3ccc(F)cc3F)nc(Nc3cc(C)[nH]n3)cc2c1 [Example 302, 1-(2,4-Difluoro-phenyl)-3-(5-methyl-1H-pyrazol-3-ylamino)-isoquinoline-6-carboxylic acid (3-methoxy-propyl)-amide] | 3070 |
| Cc1cc(Nc2cc3ccccc3c(Sc3ccc(F)cc3)n2)n[nH]1 [Example 312, [1-(4-Fluoro-phenylsulfanyl)-isoquinolin-3-yl]-(5-methyl-1H-pyrazol-3-yl)-amine] | 3760 |
| COc1ccc2c(C(=O)NCC3CC3)nc(Nc3cc(C)[nH]n3)cc2c1 [Example 318, 6-Methoxy-3-(5-methyl-1H-pyrazol-3-ylamino)-isoquinoline-1-carboxylic acid cyclopropylmethyl-amide] | 3110 |

Further molecules by falling IC50, results first:

| IC50 [nM] | Structure (SMILES) |
| --- | --- |
| 1780 | Cc1cc(Nc2cc3ccccc3c(Nc3cccc(Cl)c3)n2)n[nH]1 [Example 294, N^1-(3-Chloro-phenyl)-N^3-(5-methyl-1H-pyrazol-3-yl)-isoquinoline-1,3-diamine] |
| 1580 | COc1cccc(Sc2nc(Nc3cc(C)[nH]n3)cc3ccccc23)c1 [Example 306, [1-(3-Methoxy-phenylsulfanyl)-isoquinolin-3-yl]-(5-methyl-1H-pyrazol-3-yl)-amine] |
| 1540 | COc1ccc2c(-c3ccc(C)cc3)nc(Nc3cc[nH]n3)cc2c1 [Example 263, (6-Methoxy-1-p-tolyl-isoquinolin-3-yl)-(1H-pyrazol-3-yl)-amine] |
| 1530 | COc1cccc(-c2nc(Nc3cc(C)[nH]n3)cc3cc(OCCN4CCOCC4)ccc23)c1 [Example 300, [1-(3-Methoxy-phenyl)-6-(2-morpholin-4-yl-ethoxy)-isoquinolin-3-yl]-(5-methyl-1H-pyrazol-3-yl)-amine] |
| 1410 | COc1cccc2c(-c3ccccc3)nc(Nc3cc(C)[nH]n3)cc12 [Example 202, (5-Methoxy-1-phenyl-isoquinolin-3-yl)-(5-methyl-1H-pyrazol-3-yl)-amine] |
| 1380 | COc1ccc2c(Oc3ccc(C#N)cc3)nc(Nc3cc(C)[nH]n3)cc2c1 [Example 39, 4-[3-(5-Methyl-1H-pyrazol-3-ylamino)-6-methoxy-isoquinolin-1-yloxy]-benzonitrile] |
| 1370 | COc1cccc2c(Oc3ccc(C)cc3)nc(Nc3cc(C)[nH]n3)cc12 [Example 67, (5-Methyl-1H-pyrazol-3-yl)-(1-p-tolyloxy-5-methoxy-isoquinolin-3-yl)-amine] |
| 1290 | COc1ccc2c(Nc3ccncc3)nc(Nc3cc(C)[nH]n3)cc2c1 [Example 288, 6-Methoxy-N^3-(5-methyl-1H-pyrazol-3-yl)-N^1-pyridin-4-yl-isoquinoline-1,3-diamine] |
| 999 | Cc1cc(Nc2cc3ccccc3c(Oc3cccc(C#N)c3)n2)n[nH]1 [Example 28, 3-[3-(5-Methyl-1H-pyrazol-3-ylamino)-isoquinolin-1-yloxy]-benzonitrile] |
| 636 | COc1ccc2c(OC(C)C)nc(Nc3cc(C)[nH]n3)cc2c1 [Example 56, (1-Isopropoxy-6-methoxy-isoquinolin-3-yl)-(5-methyl-1H-pyrazol-3-yl)-amine] |
